Values of other authors as cited in patent US20160174564A1, “BIOCIDE-FREE PREWETTED SPONGE CLOTH” (Kalle GmbH, priority 2014, published 2016).

Conditions: saturated solutions of different salts; 20° C.

Point of comparison: `[Cl-].[Li+]` [LiCl], aw value 0.112. Against it:
- [Cl-].[Cl-].[Sr+2] [SrCl2] — higher, 0.708
- [Cl-].[Na+] [NaCl] — higher, 0.753
- [Cl-].[K+] [KCl] — higher, 0.843
- [Br-].[Na+] [NaBr] — higher, 0.577
- [Cl-].[Cl-].[Mg+2] [MgCl2] — higher, 0.327
- O=[N+]([O-])[O-].O=[N+]([O-])[O-].[Mg+2] [Mg(NO3)2] — higher, 0.529
- O=C([O-])[O-].[K+].[K+] [Sample K2CO3, K2CO3] — higher, 0.438
